Source: patent US20260001928A1 (CORTERIA PHARMACEUTICALS, priority 2022, published 2026)
*1 amine or outer side, *2 acyl side, *3 side chain or, on linkers, in order; H or OH if unused. Where a SMILES comes first, the peptide text is derived from it. Side-chain parts run from the residue outwards. [ ]: non-standard residue; d: D form. The star is where a group is joined. C18 diacid = O=C(O)CCCCCCCCCCCCCCCCC(=O)*; C16 diacid = O=C(O)CCCCCCCCCCCCCCC(=O)*; γGlu = O=C(O)[C@H](CCC(=O)[*:2])N[*:1]; NMeI = CC[C@H](C)[C@H](NC)C(=O)O; Aib = CC(C)(N)C(=O)O

System: human LAD2 cells
Format: cell-based
Description: LAD2 cells (20000 cells/well, 96-well plates and 10,000 cells/well in 384-well plates) were incubated with compounds for 30 min. The R-hexosaminidase released into the supernatants and in cell lysates was quantified using the fluorogenic substrate 4-methylumbelliferyl-N-acetyl-b-D-glucosaminide.
On the day of the assay, the lyophilized peptides were dissolved in DMSO and/or PBS 1× pH 7.4, to obtain stock solutions. The stock solutions were used to prepare working serial dilutions to have final concentrations in assay ranging from 50, 100 or 300 to 0.1 or 0.001 μM. Each peptide was tested in biological duplicates. When compounds were dissolved in DMSO, the final solvent concentration in assay was 0.5% (v/v).
The percentage of degranulation, expressed as % of R-hexosaminidase release, was calculated by dividing the fluorescence signal of the supernatant by the sum of the signals from the supernatant and cell pellet (lysed with Triton X-100, final 1%) and multiplying by 100.
Dose-response curves were generated by plotting the % of R-hexosaminidase release versus total release of cells treated with triton (y-axis) against the concentrations of peptides tested (x-axis). The Mast Cell Degranulation (MCD) EC50 values and standard errors were calculated using XLfit 5.5.0.5 based on the following equation:
4 Parameter Sigmoidal Model: f=(A+((B−A)/(1+((C/x)^D))))
where A=Emin, B=Emax, C=EC50 and D=slope

| EC50 | SMILES |
| --- | --- |
| > 100 µM | CC[C@H](C)[C@H](NC)C(=O)N[C@H](C(=O)N[C@@H](CC(C)C)C(=O)N[C@@H](CO)C(=O)N[C@@H](CC(C)C)C(=O)N[C@@H](CC(=O)O)C(=O)N[C@@H](C(=O)N1CCC[C@H]1C(=O)N[C@H](C(=O)N[C@@H](CCCCN)C(=O)N[C@@H](CC(C)C)C(=O)N[C@@H](CCCCNC(=O)CC[C@H](NC(=O)CCCCCCCCCCCCCCCCC(=O)O)C(=O)O)C(=O)N[C@@H](CCCCN)C(=O)N[C@H](C(=O)N[C@@H](CC(C)C)C(=O)N[C@@H](CC(C)C)C(=O)N[C@@H](CCC(=O)O)C(=O)N[C@@H](CCC(N)=O)C(=O)N[C@@H](CCC(=O)O)C(=O)N[C@@H](CCCCN)C(=O)N[C@@H](CCC(N)=O)C(=O)N[C@@H](CCCCN)C(=O)NC(C)(C)C(=O)N[C@@H](CCC(N)=O)C(=O)N[C@@H](CCCNC(=N)N)C(=O)N[C@@H](CCC(=O)O)C(=O)N[C@@H](CCC(N)=O)C(=O)N[C@@H](C)C(=O)N[C@@H](CCC(=O)O)C(=O)N[C@H](C(=O)N[C@@H](CC(N)=O)C(=O)NC(C)(C)C(=O)N[C@@H](CCC(N)=O)C(=O)N[C@H](C(=O)N[C@@H](CC(C)C)C(=O)N[C@@H](C)C(=O)N[C@@H](CCC(N)=O)C(=O)N[C@H](C(N)=O)C(C)C)[C@@H](C)CC)[C@@H](C)O)[C@@H](C)CC)[C@@H](C)CC)C(C)C)C(C)C [Cmpd 145] (H-[NMeI]VLSLD[dV]PIKLK([γGlu-C18 diacid])KILLEQEKQK[Aib]QREQAETN[Aib]QILAQV-NH2) |
| > 50 µM | CC[C@H](C)[C@H](NC(C)=O)C(=O)N[C@H](C(=O)N[C@@H](CC(C)C)C(=O)N[C@@H](CO)C(=O)N[C@@H](CC(C)C)C(=O)N[C@@H](CC(=O)O)C(=O)N[C@@H](C(=O)N1CCC[C@H]1C(=O)N[C@H](C(=O)N[C@@H](CCCCN)C(=O)N[C@@H](CC(C)C)C(=O)N[C@@H](CCCCNC(=O)CC[C@H](NC(=O)CCCCCCCCCCCCCCC(=O)O)C(=O)O)C(=O)N[C@@H](CCCCN)C(=O)N[C@H](C(=O)N[C@@H](CC(C)C)C(=O)N[C@@H](CC(C)C)C(=O)N[C@@H](CCC(=O)O)C(=O)N[C@@H](CCC(N)=O)C(=O)N[C@@H](CCC(=O)O)C(=O)N[C@@H](CCCCN)C(=O)N[C@@H](CCC(N)=O)C(=O)N[C@@H](CCCCN)C(=O)N[C@@H](C)C(=O)N[C@@H](CCC(N)=O)C(=O)N[C@@H](CCCNC(=N)N)C(=O)N[C@@H](CCC(=O)O)C(=O)N[C@@H](CCC(N)=O)C(=O)N[C@@H](C)C(=O)N[C@@H](CCC(=O)O)C(=O)N[C@H](C(=O)N[C@@H](CC(N)=O)C(=O)NC(C)(C)C(=O)N[C@@H](CCC(N)=O)C(=O)N[C@H](C(=O)N[C@@H](CC(C)C)C(=O)N[C@@H](C)C(=O)N[C@@H](CCC(N)=O)C(=O)N[C@H](C(N)=O)C(C)C)[C@@H](C)CC)[C@@H](C)O)[C@@H](C)CC)[C@@H](C)CC)C(C)C)C(C)C [Cmpd 161] (Ac-IVLSLD[dV]PIKLK([γGlu-C16 diacid])KILLEQEKQKAQREQAETN[Aib]QILAQV-NH2) |
